21 molecules from PubChem BioAssay (NCI) can be followed below.

Each structure is given as a SMILES string.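 48-hour exposure; five concentrations; linearly interpolated endpoints. At the TGI there is no net growth.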

Test systems include A549 NSCLC; IGROV1 ovarian; M14 melanoma; MDA-N; OVCAR-4 ovarian; OVCAR-8 ovarian; RXF 393 renal; SK-MEL-28 melanoma; SN12C renal; K-562 leukemia; RPMI-8226 leukemia.
What all share (test): NCI tumour cell line growth inhibition, 48 h

Take `CC(=O)/C(=C/N1CC(=O)NC1=S)C(=O)Nc1ccccc1C`: the TGI in the experiment with A549 NSCLC, in the experiment on IGROV1 ovarian, in the experiment with M14 melanoma, in the experiment on MDA-N, in the experiment on OVCAR-4 ovarian and in the experiment on OVCAR-8 ovarian was greater than 100 µM each time. Besides, the TGI in the experiment with RXF 393 renal, in the experiment with SK-MEL-28 melanoma and with SN12C renal was greater than 100 µM throughout.
Turning to `C[n+]1c2ccccc2n2c3ccccc3c(NCc3ccco3)c(C#N)c21`, the TGI in the experiment on A549 NSCLC was greater than 100 µM; in the experiment on K-562 leukemia it was greater than 21.1 µM; in the experiment on M14 melanoma, 5.62 µM; in the experiment with MDA-N it was 10.9 µM; with OVCAR-4 ovarian, 10.7 µM; in the experiment with RXF 393 renal, 6.21 µM. In addition, the TGI with SK-MEL-28 melanoma came to 5.75 µM; in the experiment on SN12C renal, 9.82 µM.
For `Nc1nncc2n[nH]nc12`, the TGI in the experiment on A549 NSCLC, with IGROV1 ovarian, in the experiment with M14 melanoma, in the experiment with MDA-N, in the experiment with OVCAR-8 ovarian and with RPMI-8226 leukemia was greater than 100 µM each time. Besides, the TGI in the experiment with RXF 393 renal, with SK-MEL-28 melanoma and in the experiment on SN12C renal was greater than 100 µM in each case.
For the molecule `CC(C)(C)n1[nH]c(=O)n(C(C)(C)C)c1=O`, the TGI in the experiment on A549 NSCLC, with K-562 leukemia, with M14 melanoma, in the experiment on MDA-N, with OVCAR-4 ovarian and with RPMI-8226 leukemia was greater than 100 µM in each case. In addition, the TGI in the experiment with RXF 393 renal, with SK-MEL-28 melanoma and with SN12C renal was greater than 100 µM throughout.
With `N#CC12CC(C=O)=C(N)C1(C#N)CC(C=O)=C2N` (centres undefined), the TGI in the experiment with A549 NSCLC, in the experiment on IGROV1 ovarian, with K-562 leukemia, in the experiment with M14 melanoma, with MDA-N and with OVCAR-8 ovarian was greater than 100 µM in each case. The TGI in the experiment with RPMI-8226 leukemia, in the experiment with RXF 393 renal, in the experiment on SK-MEL-28 melanoma and in the experiment with SN12C renal was greater than 100 µM throughout.
With `COc1ccc(C/C=C(\C)CCO)cc1`, the TGI in the experiment on A549 NSCLC, in the experiment on IGROV1 ovarian, in the experiment on K-562 leukemia, in the experiment on M14 melanoma, in the experiment on MDA-N and in the experiment on OVCAR-4 ovarian was greater than 100 µM throughout. The TGI in the experiment on OVCAR-8 ovarian was greater than 100 µM; with RPMI-8226 leukemia, 89.8 µM; in the experiment on RXF 393 renal, greater than 100 µM; in the experiment with SN12C renal, greater than 100 µM.
For `Cc1cn(CC2(CO)CCC2)c(=O)[nH]c1=O`, the TGI in the experiment on A549 NSCLC, with IGROV1 ovarian, in the experiment with K-562 leukemia, in the experiment with MDA-N, in the experiment on OVCAR-4 ovarian and with OVCAR-8 ovarian was greater than 100 µM in each case. Besides, the TGI in the experiment with RPMI-8226 leukemia, in the experiment with RXF 393 renal, in the experiment with SK-MEL-28 melanoma and with SN12C renal was greater than 100 µM each time.
With `CCOC(=O)c1ccc(Nc2nc3ccccc3n3cccc23)cc1`, the TGI in the experiment on A549 NSCLC, in the experiment with IGROV1 ovarian, in the experiment on K-562 leukemia, with M14 melanoma, in the experiment with MDA-N and in the experiment with OVCAR-8 ovarian was greater than 100 µM throughout. Moreover, the TGI with RPMI-8226 leukemia is greater than 100 µM; with RXF 393 renal, 49.7 µM; in the experiment on SK-MEL-28 melanoma, greater than 100 µM; in the experiment with SN12C renal, 39.4 µM.
Consider `CC1=C/C(=N\NS(=O)(=O)c2ccc([N+](=O)[O-])cc2)CC(C)(C)C1`, for which the TGI with A549 NSCLC, with IGROV1 ovarian, in the experiment with K-562 leukemia, in the experiment on M14 melanoma, with MDA-N and in the experiment on OVCAR-8 ovarian was greater than 100 µM each time. In addition, the TGI with RPMI-8226 leukemia, in the experiment with RXF 393 renal, with SK-MEL-28 melanoma and in the experiment with SN12C renal was greater than 100 µM in each case.
Take `COC(=O)c1ccc(NCC2=CC(=O)C=CC2=O)cc1O`: the TGI in the experiment with A549 NSCLC was greater than 100 µM; in the experiment with IGROV1 ovarian, 41.6 µM; in the experiment on K-562 leukemia, greater than 100 µM; with M14 melanoma it was 50.6 µM; in the experiment with MDA-N it was 35.8 µM; in the experiment with OVCAR-4 ovarian it was 30.3 µM. Also, the TGI in the experiment with OVCAR-8 ovarian is 30.8 µM; in the experiment with RXF 393 renal, 44 µM; in the experiment on SK-MEL-28 melanoma, greater than 100 µM; in the experiment on SN12C renal it was 66.5 µM.
Take `C1=C2C3=[N+](CCCC3)CC2Cc2sccc21` (centres undefined): the TGI in the experiment on A549 NSCLC, in the experiment on IGROV1 ovarian, in the experiment on K-562 leukemia, with M14 melanoma, in the experiment with MDA-N and in the experiment with OVCAR-4 ovarian was greater than 100 µM each time. The TGI in the experiment with OVCAR-8 ovarian, in the experiment on RXF 393 renal, in the experiment with SK-MEL-28 melanoma and in the experiment with SN12C renal was greater than 100 µM each time.
Turning to `O=C1/C(=C/c2ccc([N+](=O)[O-])cc2)CCCc2ccccc21`, the TGI in the experiment on A549 NSCLC, with IGROV1 ovarian, in the experiment on K-562 leukemia, in the experiment on M14 melanoma, in the experiment on MDA-N and in the experiment with OVCAR-4 ovarian was greater than 100 µM throughout. Moreover, the TGI in the experiment with OVCAR-8 ovarian, in the experiment on RPMI-8226 leukemia, in the experiment on SK-MEL-28 melanoma and in the experiment on SN12C renal was greater than 100 µM in each case.
As for `O=C(O)CN1CCN2CCCCCCCCN(CC1)CCN(CC(=O)O)CC2`, the TGI with A549 NSCLC, with IGROV1 ovarian, with K-562 leukemia, in the experiment on M14 melanoma, in the experiment with MDA-N and in the experiment on OVCAR-4 ovarian was greater than 100 µM throughout. In addition, the TGI in the experiment on OVCAR-8 ovarian, in the experiment with RPMI-8226 leukemia, in the experiment on SK-MEL-28 melanoma and with SN12C renal was greater than 100 µM each time.
As to `COc1c(C)c(C/C=C(\C)CC/C=C(\C)CC/C=C(\C)CC/C=C(\C)CCC=C(C)C)c(OC)c(OC)c1OC`, the TGI in the experiment with A549 NSCLC is 48.1 µM; in the experiment on IGROV1 ovarian, 60.3 µM; in the experiment with K-562 leukemia it was 55.1 µM; with M14 melanoma it was greater than 100 µM; in the experiment on MDA-N, greater than 100 µM; in the experiment on OVCAR-4 ovarian, 52.3 µM. Also, the TGI was 46.1 µM in the experiment with OVCAR-8 ovarian, greater than 100 µM with RXF 393 renal and 52.7 µM in the experiment on SN12C renal.
Consider `CC(=O)OC(OC(C)=O)c1c2ccccc2cc2ccccc12`, for which the TGI with A549 NSCLC turned out to be 65.9 µM; in the experiment on IGROV1 ovarian, 55.9 µM; in the experiment on K-562 leukemia, 27.8 µM; in the experiment on M14 melanoma, 44.8 µM; in the experiment with MDA-N, 63.7 µM; in the experiment with OVCAR-8 ovarian, 41.8 µM. Further, the TGI in the experiment with RPMI-8226 leukemia was 87.2 µM; in the experiment on RXF 393 renal it was 31 µM; with SN12C renal, 63.4 µM.
Take `O=C(CSc1nc2ccc(I)cc2c(=O)n1Cc1ccccc1)NNC(=S)Nc1ccccc1`: the TGI in the experiment on A549 NSCLC, in the experiment with K-562 leukemia, with M14 melanoma, in the experiment with MDA-N, in the experiment on OVCAR-4 ovarian and with RPMI-8226 leukemia was greater than 100 µM in each case. Besides, the TGI in the experiment on RXF 393 renal, in the experiment on SK-MEL-28 melanoma and with SN12C renal was greater than 100 µM each time.
As to `CC(C)CC(C#CCCOC(=O)c1ccccc1)OC(=O)c1ccccc1` (centres undefined), the TGI in the experiment on A549 NSCLC, in the experiment on IGROV1 ovarian, in the experiment on K-562 leukemia, in the experiment on M14 melanoma, in the experiment on MDA-N and in the experiment with OVCAR-8 ovarian was greater than 10 µM in each case. For the same molecule, the TGI in the experiment on RXF 393 renal, in the experiment on SK-MEL-28 melanoma and in the experiment with SN12C renal was greater than 10 µM throughout.
For `CC1(C)CC[C@]2(C)[C@@H](O)C[C@]3(C)C(=CC[C@@H]4[C@@]5(C)CC[C@H](O)C(C)(C)[C@@H]5CC[C@]43C)[C@@H]2C1`, the TGI in the experiment with A549 NSCLC, in the experiment with IGROV1 ovarian, with K-562 leukemia, in the experiment on M14 melanoma, in the experiment on MDA-N and with OVCAR-4 ovarian was greater than 100 µM throughout. Moreover, the TGI in the experiment on OVCAR-8 ovarian was 74.3 µM; in the experiment with RXF 393 renal, 22.4 µM; in the experiment with SK-MEL-28 melanoma, greater than 100 µM; in the experiment on SN12C renal, greater than 100 µM.
As for `Cn1c2ccccc2c2c3c(c4c5ccccc5n(C)c4c21)C(=O)N(Cc1ccccc1)C3=O`, the TGI in the experiment on A549 NSCLC, in the experiment with IGROV1 ovarian, in the experiment on K-562 leukemia, in the experiment on M14 melanoma, with MDA-N and in the experiment on OVCAR-4 ovarian was greater than 100 µM each time. In addition, the TGI with OVCAR-8 ovarian, in the experiment with RPMI-8226 leukemia, in the experiment with SK-MEL-28 melanoma and with SN12C renal was greater than 100 µM in each case.
With `COc1ccc(/C(=N/OCCCC(=O)O)c2cccs2)cc1`, the TGI in the experiment with A549 NSCLC, in the experiment on K-562 leukemia, in the experiment with MDA-N, with OVCAR-4 ovarian, with OVCAR-8 ovarian and in the experiment with RPMI-8226 leukemia was greater than 100 µM in each case. The TGI with RXF 393 renal and in the experiment on SN12C renal was greater than 100 µM in each case.
For the molecule `CCCNC(=O)Cn1c2c(c3ccccc31)CCCC2`, the TGI in the experiment with A549 NSCLC, with IGROV1 ovarian, in the experiment with K-562 leukemia, with M14 melanoma, in the experiment on MDA-N and with OVCAR-4 ovarian was greater than 100 µM in each case. In addition, the TGI in the experiment with OVCAR-8 ovarian, in the experiment with RPMI-8226 leukemia, with SK-MEL-28 melanoma and in the experiment on SN12C renal was greater than 100 µM each time.
